Measured values: patent US12673039B2, “Methods of inducing autophagy using coumarin derivatives and related compounds” (Buck Institute for Research on Aging, priority 2019, dated 2026)

Assays:
AM141 worm = assay: polyQ40 aggregation in AM141 worms; type: in vivo, C. elegans; details: dose dependent
Excerpt: FIG. 21, panels A-F: AIC106 prevents neuronal loss and proteotoxicity in strains expressing human neurotoxic proteins. Panel A) Dopaminergic neuronal loss in day-5 UA44 worms was quantified by scoring percentage of worms with intact 4-CEP neurons in AIC106 and DMSO-control treatment. [N=3 independent experiments (mean±SD). ***p<0.001, by one-way ANOVA with Tukey's multiple comparisons test]. Motor function in (panel B) day-7 NL5901 and (panel C) day-5 CL2006 worms were quantified by scoring number of thrashes for an individual worm over the period of 30 seconds (dots) in AIC106 and DMSO-control treatment. […] Panel D) Motor function in temperature sensitive (enhanced paralysis at 25° C.) CL4176 worms was determined by scoring percent of worms paralyzed in AIC106 and DMSO-control treatment. […] P-value calculated by Logrank test]. Panel F) Effect of AIC106 on polyQ40 aggregation was determined by scoring number of polyQ40-YFP fluorescent puncta in an individual AM141 worm treated with AIC106 and DMSO-control. […]
Synchronized populations of day-1 adult worms expressing reporter GFP transgene or stained with a dye/stain (Lysotracker and TMRM) and grown at 20° C. were transferred to compound or DMSO plates. Fluorescence expression was analyzed at the time specified for each individual strain (see figure legends). […] Fluorescence intensity normalized to worm area was measured using NIH ImageJ software. […]

[1] = tested on: parkin mutant PD mouse model; assay: Age-related parkin mutant PD mouse model, C1 in the feed; type: in vivo; details: oral in the feed
Excerpt: Relative TFEB expression as assessed by qPCR from mRNA extracted from the SNpc of parkin mutant versus WT littermates administered C1 in the feed versus normal chow; UA was included as a positive control.
Stereological DAergic SNpc counts and motor behavior as assessed by rearing frequency in parkin mutant versus WT littermates administered C1 in the feed versus normal chow.

[2] = tested on: worms expressing human Abeta and alpha-synuclein; assay: Neurodegenerative C. elegans models expressing human Abeta and alpha-synuclein (Example 1); type: in vivo; details: worms expressing human Abeta and alpha-synuclein (FIG. 11)
Protocol: FIGS. 11A-11D illustrate that coumarin 106 (“C1”, “AIC106”) is protective in a TFEB-dependent manner in C. elegans models that express human neurotoxic proteins. FIG. 11A) Transgenic worm strain expressing human alpha-synuclein under control of the dopamine-specific promoter grown on control or HLH-30 RNAi were exposed to 20 μM C1 versus DMSO-only controls on day-1 of adulthood. GFP+ cell counts were performed in young adults. Values represent number of animals displaying no DAergic cell loss; pooled results from 2 independent experiments. FIG. 11B) Transgenic worm strain expressing human alpha-synuclein under control of the muscle-specific promoter grown on control or HLH-30 RNAi were exposed to 20 μM C1 versus DMSO-only control on day-1 of adulthood followed by transfer to fresh plates every alternative day. Number of trashes per 30 sec were measured at day-6 and day-7 (n>60). *p<0.03, ***p<0.0008, ****p<0.0001. FIG. 11C) Transgenic worms expressing Abeta tagged with GFP within glutaminergic neurons grown on control or HLH-30 RNAi were exposed to 50 or 200 μM C1 versus DMSO-only controls on day-1 of adulthood. GFP+ cell counts were performed in young adults. Values represent % intact neurons. […] Number of trashes per 30 sec were measured at day-6 and day-7 (n>60). *p<0.03, ****p<0.0001. […]

O=c1oc2c3c4c(cc2c2c1CCC2)CCCN4CCC3 [C1, 2,3,6,7,10,11-Hexahydro-1H,5H-cyclopenta(3,4)(1)benzopyrano(6,7,8-ij)quinolizin-12(9H)-one]
poly-Q40 aggregates (AM141 worm): significantly decreased poly-Q40 aggregates
motor deficits (rearing frequency) ([1]; 6 month period (FIG. 16)): prevents both neuronal cell loss and motor deficits
neuronal cell loss (DAergic SNpc counts) ([1]; 6 month period (FIG. 16)): prevents both neuronal cell loss and motor deficits
TFEB expression in SNpc ([1]; 6 month period from 14-16 mo. (FIG. 15)): TFEB target engagement
protection in neurodegenerative C. elegans models [2]: protection in a TFEB-dependent manner
